Laboratory results published in ChEMBL document CHEMBL3861941, “Discovery of 4,6-disubstituted pyrimidines as potent inhibitors of the heat shock factor 1 (HSF1) stress pathway and CDK9” (Medchemcomm, 2016).

Key:
[1] = biological target: CDK9/cyclin T1 (Homo sapiens, UniProt P50750)
[2] = Cytotoxicity against human U2OS cells assessed as growth inhibition after 96 hrs by SRB assay; format: functional, cell-based
[3] = biological target: Cyclin-dependent kinase 2/cyclin E1 (Homo sapiens, UniProt P24941); assay: Inhibition of recombinant full-length human C-terminal His6-tagged CDK2/recombinant full-length human N-terminal GST-tagged cyclin E using fluorescein-QSPKKG-CONH2 as substrate after 60 mins by off-chip mobility shift assay; format: protein-complex assay

Chain of CDK9/cyclin T1 (O60563 whole entry): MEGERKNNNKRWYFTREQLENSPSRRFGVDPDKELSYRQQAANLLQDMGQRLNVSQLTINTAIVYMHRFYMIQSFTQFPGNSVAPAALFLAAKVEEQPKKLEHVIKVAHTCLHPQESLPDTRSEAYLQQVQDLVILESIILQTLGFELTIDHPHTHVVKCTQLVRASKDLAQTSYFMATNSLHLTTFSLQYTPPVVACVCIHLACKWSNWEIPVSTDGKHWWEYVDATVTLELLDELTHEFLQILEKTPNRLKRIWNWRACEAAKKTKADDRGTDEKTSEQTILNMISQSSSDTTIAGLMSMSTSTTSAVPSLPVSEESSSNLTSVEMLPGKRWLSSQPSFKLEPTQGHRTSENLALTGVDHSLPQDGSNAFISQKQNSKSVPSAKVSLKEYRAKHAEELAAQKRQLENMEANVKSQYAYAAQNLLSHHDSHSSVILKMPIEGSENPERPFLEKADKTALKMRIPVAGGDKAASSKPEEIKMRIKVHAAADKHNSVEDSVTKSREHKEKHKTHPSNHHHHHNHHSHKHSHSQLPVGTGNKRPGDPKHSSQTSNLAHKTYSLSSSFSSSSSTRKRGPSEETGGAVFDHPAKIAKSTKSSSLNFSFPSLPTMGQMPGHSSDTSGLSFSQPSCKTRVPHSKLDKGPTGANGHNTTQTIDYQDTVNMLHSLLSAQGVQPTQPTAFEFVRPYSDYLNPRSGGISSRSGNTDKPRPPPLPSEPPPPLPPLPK
Chain of CDK9/cyclin T1 (P50750 whole entry): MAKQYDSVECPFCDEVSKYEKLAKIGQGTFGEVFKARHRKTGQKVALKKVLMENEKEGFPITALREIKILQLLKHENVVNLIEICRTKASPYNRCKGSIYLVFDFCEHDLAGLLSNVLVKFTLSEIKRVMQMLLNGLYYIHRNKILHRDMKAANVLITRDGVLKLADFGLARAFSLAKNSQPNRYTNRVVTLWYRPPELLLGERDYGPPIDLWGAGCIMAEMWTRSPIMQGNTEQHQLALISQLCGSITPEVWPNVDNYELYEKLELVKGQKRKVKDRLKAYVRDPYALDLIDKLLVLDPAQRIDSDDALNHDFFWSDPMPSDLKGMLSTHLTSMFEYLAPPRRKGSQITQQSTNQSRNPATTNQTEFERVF

| IC50 [1] | IC50 [3] | Compound | IC50 [2] |
| --- | --- | --- | --- |
| 3 nM |  | c1cnc2ncn(-c3cc(Nc4ccc(OCCN5CCCCC5)cn4)ncn3)c2c1 | 5 nM |
|  | 65800 nM | Cc1c(Nc2ccc(OCCN(C)C)cn2)ncnc1-n1cnc2ccccc21 |  |
